Measured values: patent publication US20250296971A1, “GASTRIC INHIBITORY PEPTIDE RECEPTOR LIGANDS” (priority 2021, published 2025)
Where two headings read alike, the source gives them in different places. *1 amine or outer side, *2 acyl side, *3 side chain or, on linkers, in order; H or OH if unused. Where a SMILES comes first, the peptide text is derived from it. Bridges are numbered along the chain shown (N, C = ends). [ ]: non-standard residue; d: D form. The star is where a group is joined. X5 = NC(=O)[C@H](CCCCNC(=O)CN1CCN(CC(=O)O)CCN(CC(=O)O)CCN(CC(=O)O)CC1)NC(=O)CCC(=O)NCCCOCCOCCOCCCN*; X3 = O=C(O)CN1CCN(CC(=O)O)CCN(CC(=O)NCCCOCCOCCOCCCN*)CCN(CC(=O)O)CC1; Trp(5-Cl) = N[C@@H](Cc1c[nH]c2ccc(Cl)cc12)C(=O)O; Trp(5-F) = N[C@@H](Cc1c[nH]c2ccc(F)cc12)C(=O)O; Propanoyl(3-(4-Cl-Ph)) = O=C(CCc1ccc(Cl)cc1)*; 1Nal = N[C@@H](Cc1cccc2ccccc12)C(=O)O; mXylylene = c1cc(C[*:1])cc(C[*:2])c1; X15 = c1ncc(C[*:1])cc1CSCCN[*:2]; Suc = O=C(CCC(=O)[*:2])[*:1]; Aib = CC(C)(N)C(=O)O

Molecular target: T1, GIPR (CHO-K1-hGIPR cells) (Homo sapiens, UniProt P48546)
T1 construct: host or cells: CHO-K1
T1 sequence (P48546 22-466): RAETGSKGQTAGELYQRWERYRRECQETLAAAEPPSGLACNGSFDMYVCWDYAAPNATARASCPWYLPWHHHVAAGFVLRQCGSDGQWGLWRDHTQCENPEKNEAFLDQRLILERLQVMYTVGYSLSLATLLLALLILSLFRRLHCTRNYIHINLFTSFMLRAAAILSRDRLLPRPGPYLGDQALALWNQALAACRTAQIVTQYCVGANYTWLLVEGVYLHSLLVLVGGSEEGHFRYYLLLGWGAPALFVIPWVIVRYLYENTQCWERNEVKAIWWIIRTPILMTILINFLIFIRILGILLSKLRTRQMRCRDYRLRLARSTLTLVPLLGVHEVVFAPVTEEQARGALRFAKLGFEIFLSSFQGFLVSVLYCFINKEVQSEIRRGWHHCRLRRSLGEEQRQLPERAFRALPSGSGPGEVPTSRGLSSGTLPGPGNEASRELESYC
Assay: FACS binding assay
Settings: for IC50: read-out: pIC50 Category (converted)
In short: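 Peptide binding read by flow cytometry as APC-channel median fluorescence, fitted with a four-parameter logistic to yield EC50 or IC50. Cells were hGIPR-transfected CHO-K1 in PBS with 1% FCS, detected with 1 μg/mL APC-streptavidin, 30 min on ice.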

[1] = competition with 20 nM GIP-057, 4° C., 1 hour
[2] = competition with 20 nM GIP-057, 4° C. for 1 hour

Compound | IC50 [1] | IC50 [2] | other results
CC[C@H](C)[C@@H]1NC(=O)[C@H](CC(C)C)NC(=O)C(C)(C)NC(=O)[C@@H](NC(=O)[C@@H](CC(C)C)NC(=O)[C@H](CCC(=O)O)NC(=O)[C@@H]2CCCN2C(=O)[C@H](Cc2cccc3ccccc23)NC(=O)[C@H](Cc2c[nH]c3ccc(F)cc23)NC(=O)[C@H](CC(=O)O)NC(C)=O)CSCc2cccc(c2)CSC[C@@H](C(=O)NCCCOCCOCCOCCCNC(=O)CCC(=O)N[C@@H](CCCCNC(=O)CN2CCN(CC(=O)O)CCN(CC(=O)O)CCN(CC(=O)O)CC2)C(N)=O)NC1=O [GIP-083, Ac-Asp-5Fw-1Ni-Pro-Glu-leu-[Cys(3MeBn)-Aib-Leu-Ile-Cys]-Ttds-Lys(DOTA)-NH2] (Ac-D[Trp(5-F)][1Nal]PE[dL]C[Aib]LIC-X5; linker 7-11 via mXylylene) | < 10 nM |  | 
CC[C@H](C)[C@@H]1NC(=O)[C@H](CC(C)C)NC(=O)C(C)(C)NC(=O)[C@@H](NC(=O)[C@@H](CC(C)C)NC(=O)[C@H](CCC(=O)O)NC(=O)[C@@H]2CCCN2C(=O)[C@H](Cc2c[nH]c3ccc(Cl)cc23)NC(=O)[C@H](Cc2c[nH]c3ccccc23)NC(=O)[C@H](CC(=O)O)NC(=O)CCC(=O)NCCCOCCOCCOCCCNC(=O)CN2CCN(CC(=O)O)CCN(CC(=O)O)CCN(CC(=O)O)CC2)CSCc2cncc(c2)CSCCNC1=O [GIP-091, DOTA-Ttds-Asp-Trp-5Clw-Pro-Glu-leu-[Cys(3Lut)-Aib-Leu-Ile-AET]] ({X3-Suc}-DW[Trp(5-Cl)]PE[dL]C[Aib]LI; linker 7-C via X15) | < 10 nM |  | 
CC[C@H](C)[C@@H]1NC(=O)[C@H](CC(C)C)NC(=O)[C@H](C)NC(=O)[C@H](NC(=O)[C@H](CC(C)C)NC(=O)[C@H](CCC(=O)O)NC(=O)[C@@H]2CCCN2C(=O)[C@H](Cc2c[nH]c3ccccc23)NC(=O)[C@H](Cc2c[nH]c3ccccc23)NC(=O)[C@H](CC(=O)O)NC(=O)[C@H](Cc2ccc(O)cc2)NC(=O)[C@@H](N)CCSC)CSCc2cccc(c2)CSC[C@@H](C(N)=O)NC1=O [GIP-309] (H-MYDWWPEL[dC]ALIC-NH2; linker 9-13 via mXylylene) |  | 100 to 794 nM | 
MeO2kDaPEGAc-Asp-Trp-5Clw-Hyp-Glu-leu-[Cys(2Lut)-Thp-Leu-Ile-Cys]-lys(DOTA)-NH2 [GIP-120] |  |  | pIC50 Category [1]: A (pIC50 values>8.0)
CC[C@H](C)[C@@H]1NC(=O)[C@H](CC(C)C)NC(=O)[C@@H](C)NC(=O)[C@@H](NC(=O)[C@H](CC(C)C)NC(=O)[C@H](CCC(=O)O)NC(=O)[C@@H]2CCCN2C(=O)[C@H](Cc2c[nH]c3ccccc23)NC(=O)[C@H](Cc2c[nH]c3ccccc23)NC(=O)CCC(=O)O)CSCc2cccc(c2)CSC[C@@H](C(N)=O)NC1=O [GIP-314, HO-Succinyl-Trp-Trp-Pro-Glu-Leu-[Cys(3MeBn)-ala-Leu-Ile-Cys]-NH2] (Suc-WWPELC[dA]LIC-NH2; linker 6-10 via mXylylene) |  | 100 to 794 nM | 
CC[C@H](C)[C@@H]1NC(=O)[C@H](CC(C)C)NC(=O)C(C)(C)NC(=O)[C@@H](NC(=O)[C@@H](CC(C)C)NC(=O)[C@H](CCC(=O)O)NC(=O)[C@@H]2CCCN2C(=O)[C@H](Cc2c[nH]c3ccccc23)NC(=O)[C@H](Cc2c[nH]c3ccccc23)NC(=O)[C@H](CC(=O)O)NC(=O)CCc2ccc(Cl)cc2)CSCc2cccc(c2)CSC[C@@H](C(=O)NCCCOCCOCCOCCCNC(=O)CCC(=O)N[C@@H](CCCCNC(=O)CN2CCN(CC(=O)O)CCN(CC(=O)O)CCN(CC(=O)O)CC2)C(N)=O)NC1=O [GIP-279, 4ClPhp-Asp-Trp-Trp-Pro-Glu-leu-[Cys(3MeBn)-Aib-Leu-Ile-Cys]-Ttds-Lys(DOTA)-NH2] ({Propanoyl(3-(4-Cl-Ph))}-DWWPE[dL]C[Aib]LIC-X5; linker 7-11 via mXylylene) |  | 100 to 794 nM | 
